Legend:
[1] = Comparison of growth in treated female turkeys (Study II, Table IV); type: in vivo, Large White Nicholas turkeys; set-up: Abdominal Adipose: unit not given here; conditions: intact female; for Feed/Gain Ratio: 6 through 9 weeks; for Abdominal Adipose (%) / Feed/Gain Ratio (%) / Average Daily Gain (%) / Final 9-Week Body Weight (%) / Right Breast Muscle (%): change vs placebo; for Abdominal Adipose (%) / Feed/Gain Ratio (%): unsigned (decrease); for Average Daily Gain (%) / Final 9-Week Body Weight (%) / Right Breast Muscle (%): unsigned (increase)
Description: (§1) The same large white strain of turkey (received 1 day posthatching from Nicholas Breeding Farms, CA) was used in all studies. Poults were reared in deep litter brooder pens from 1 day posthatch and exposed to constant light until initiation of Studies I and III or through completion in the case of Study II. Studies I and III were conducted in an environmentally controlled room (photoperiod 12L:12D) with birds housed individually in wire-floored layer cages (space dimensions of 0.31 W×0.46 L×0.53 H meters per cage). Water and feed (Agway Game and Turkey Starter Crumbles) was available at all times. Turkeys were rank ordered by weight and distributed into treatment groups of equal mean body weights at the start of each Study (I, II and III).
(§2) Body weight determinations were made at the second and final week of each study, and several organs and tissues were excised and immediately weighed at the time of necropsy. Final shank-toe length, as an indicator of skeletal growth, was also determined. Birds were sacrificed via exanguination by laceration of the jugular vein. Specific details on the experimental design and conduct of each turkey study will follow.
At 6 weeks of age, seventy-seven female turkeys were rank ordered by weight and assigned to 7 treatment groups (11 birds per group) of equal mean weights. Within treatment groups, birds were further allotted to deep-litter pens (3.66×4.27 m) containing 4 subdivisions (0.91×1.22 m), with 3 birds per subdivision except for the last which contained 2. Individual treatment units (or pen subdivisions) were randomized (planned) among pens within the building, such that each pen contained 4 different treatment units (3 or 2 birds each). Feed consumption for each treatment unit was measured; thus, 4 replicates per treatment for feed consumption and feed/gain ratios (or feed efficiency) were calculated.
Treatments entailed the subcutaneous implantation (between the shoulders) of testosterone, 5-alpha-DHT or 19-nortestosterone as either a low (5-mg) or high (50-mg) dose pellet (Innovative Research of America, Rockville, Md.). Implants were specially constructed (steroid compressed into a methylcellulose/lactose pellet) to release respective steroids at a constant rate over a 21 day period (manufacturer statement). In support, a recent report by Satyaswaroop et al. (1984) on mice, found Innovative Research 17 beta-estradiol pellets to have excellent 21-day continued release characteristics (i.e., maintained blood levels of 20-30 ng/ml for 21 days). Group 1 controls were composed of females implanted with a 50-mg placebo pellet. The remaining 6 female treatment groups were as follows: Group 2, testosterone (5-mg); Group 3, 5-alpha-DHT (5-mg); Group 4, 19-nortestosterone (5-mg); Group 5, testosterone (50-mg); Group 6, 5-alpha-DHT (50-mg) and Group 7, 19-nortestosterone (50-mg). Excluding feed efficiency, data means for all other parameters were compared between treatments using individual birds as replicates (n=11). Data means for feed consumption and feed efficiency were compared between treatments using pen subdivisions (3 or 2 birds/subdivision) as replicates (n=8).
^a 5 or 50mg slow release pellets (Innovative Research) administered
subcutaneously at 6 weeks of age.
^b Data for Feed to Gain Ratio is computed for the period 6 through 9
weeks of age. Experimental units are floor pens (n = 4) of […]
values are means and SEM of the pen averages.

[2] = Comparison of growth on treated male turkeys (Study I, Table V); type: in vivo, Large White Nicholas turkeys; set-up: Abdominal Adipose: unit not given here; conditions: intact male; for Feed/Gain Ratio: n = 4; for Abdominal Adipose (%) / Average Daily Gain (%) / Final 10-Week Body Weight (%) / Right Breast Muscle (%) / Feed Efficiency: change vs placebo; for Abdominal Adipose (%): unsigned (decrease); for Average Daily Gain (%) / Final 10-Week Body Weight (%) / Right Breast Muscle (%): unsigned (increase); for Feed Efficiency: column head prints (g), cells %
Description: as §1, §2
At 7 weeks of age, forty-nine male turkeys were rank ordered by weight and assigned to 7 treatment groups ([…]) of equal mean weights. Within treatment groups, two birds were individually caged (layer cages measuring 0.31 W×0.46 L×0.53 H meters/cage) side by side on one of three tiers (5 cages/tier and 3 tiers/rack). […] Individual treatment units (or bird sets) were randomized (planned) into cages among tiers and racks to eliminate any rack (5) or tier (3 vertical) effects within the room.
Group 1 control males were implanted with a 50-mg compressed (methylcellulose/lactose) placebo pellet. The remaining 6 treatment groups were as follows: Group 2, 50-mg testosterone pellet; Group 3, 50-mg 5-alpha-DHT pellet; Group 4, 50-mg 19-nortestosterone pellet; Group 5, 5.0-cm testosterone Silastic polysiloxane capsule; Group 6, 5-cm 5-alpha-DHT Silastic polysiloxane capsule and Group 7, 5.0-cm 19-nortestosterone Silastic polysiloxane capsule. Excluding feed efficiency, data means for all parameters were compared between treatments using individual birds as replicates (n=8). Data means for feed efficiency were compared between treatments using sets of birds as replicates (n=4).

C[C@]12CC[C@H]3[C@@H](CCC4=CC(=O)CC[C@@]43C)[C@@H]1CC[C@@H]2O [Testosterone, testosterone]
Abdominal Adipose ([1]; 5-mg pellet): 20.2
Average Daily Gain ([1]; 5-mg pellet): 108 ± 2 g
Final 9-Week Body Weight ([1]; 5-mg pellet): 4096 ± 65 g
Final 9-Week Shank-Toe Length ([1]; 5-mg pellet): 18.9 ± 0.16 cm
Right Breast Muscle ([1]; 5-mg pellet): 430 ± 15 g
Feed/Gain Ratio ([1]; 5-mg pellet): 2.01 ± 0.05
Abdominal Adipose (%) ([1]; 5-mg pellet): 32%
Abdominal Adipose ([1]; 50-mg pellet): 22.8
Average Daily Gain ([1]; 50-mg pellet): 119 ± 3 g
Final 9-Week Body Weight ([1]; 50-mg pellet): 4320 ± 69 g
Final 9-Week Shank-Toe Length ([1]; 50-mg pellet): 18.6 ± 0.13 cm
Right Breast Muscle ([1]; 50-mg pellet): 477 ± 17 g
Feed/Gain Ratio ([1]; 50-mg pellet): 1.91 ± 0.04
Abdominal Adipose (%) ([1]; 50-mg pellet): 23%
Feed/Gain Ratio (%) ([1]; 50-mg pellet): 9.5%
Average Daily Gain (%) ([1]; 50-mg pellet): 15.5%
Final 9-Week Body Weight (%) ([1]; 50-mg pellet): 7.7%
Right Breast Muscle (%) ([1]; 50-mg pellet): 22.3%
Abdominal Adipose ([2]; 5-cm Silastic capsule): 13.2 ± 3.57
Average Daily Gain ([2]; 5-cm Silastic capsule): 115 ± 2 g
Final 10-Week Body Weight ([2]; 5-cm Silastic capsule): 5055 ± 61 g
Final 10-Week Shank-Toe Length ([2]; 5-cm Silastic capsule): 24.2 ± 0.18 cm
Right Breast Muscle ([2]; 5-cm Silastic capsule): 457 ± 20 g
Feed/Gain Ratio ([2]; 5-cm Silastic capsule): 2.39 ± 0.088
Abdominal Adipose ([2]; 50-mg pellet): 11.61 ± 1.37
Average Daily Gain ([2]; 50-mg pellet): 116 ± 4 g
Final 10-Week Body Weight ([2]; 50-mg pellet): 5100 ± 82 g
Final 10-Week Shank-Toe Length ([2]; 50-mg pellet): 23.6 ± 0.19 cm
Right Breast Muscle ([2]; 50-mg pellet): 450 ± 10 g
Feed/Gain Ratio ([2]; 50-mg pellet): 2.37 ± 0.086

C[C@]12CC[C@H]3[C@@H](CCC4=CC(=O)CC[C@@H]43)[C@@H]1CC[C@@H]2O [19-Nortestosterone, 19-nortestosterone]
Abdominal Adipose ([1]; 5-mg pellet): 22.8
Average Daily Gain ([1]; 5-mg pellet): 108 ± 3 g
Final 9-Week Body Weight ([1]; 5-mg pellet): 4115 ± 122 g
Final 9-Week Shank-Toe Length ([1]; 5-mg pellet): 18.87 ± 0.25 cm
Right Breast Muscle ([1]; 5-mg pellet): 439 ± 15 g
Feed/Gain Ratio ([1]; 5-mg pellet): 1.92 ± 0.04
Abdominal Adipose (%) ([1]; 5-mg pellet): 23%
Feed/Gain Ratio (%) ([1]; 5-mg pellet): 9.0%
Right Breast Muscle (%) ([1]; 5-mg pellet): 12.6%
Abdominal Adipose ([1]; 50-mg pellet): 18.7
Average Daily Gain ([1]; 50-mg pellet): 127 ± 3 g
Final 9-Week Body Weight ([1]; 50-mg pellet): 4476 ± 94 g
Final 9-Week Shank-Toe Length ([1]; 50-mg pellet): 18.31 ± 0.24 cm
Right Breast Muscle ([1]; 50-mg pellet): 493 ± 17 g
Feed/Gain Ratio ([1]; 50-mg pellet): 1.76 ± 0.07
Abdominal Adipose (%) ([1]; 50-mg pellet): 37%
Feed/Gain Ratio (%) ([1]; 50-mg pellet): 16.6%
Average Daily Gain (%) ([1]; 50-mg pellet): 23.3%
Final 9-Week Body Weight (%) ([1]; 50-mg pellet): 11.6%
Right Breast Muscle (%) ([1]; 50-mg pellet): 26.4%
Abdominal Adipose ([2]; 5-cm Silastic capsule): 7.88 ± 2.10
Average Daily Gain ([2]; 5-cm Silastic capsule): 131 ± 3 g
Final 10-Week Body Weight ([2]; 5-cm Silastic capsule): 5410 ± 73 g
Final 10-Week Shank-Toe Length ([2]; 5-cm Silastic capsule): 23.5 ± 0.15 cm
Right Breast Muscle ([2]; 5-cm Silastic capsule): 513 ± 15 g
Feed/Gain Ratio ([2]; 5-cm Silastic capsule): 1.94 ± 0.041
Abdominal Adipose (%) ([2]; 5-cm capsule): 52.8%
Average Daily Gain (%) ([2]; 5-cm capsule): 20.2%
Final 10-Week Body Weight (%) ([2]; 5-cm capsule): 10.2%
Right Breast Muscle (%) ([2]; 5-cm capsule): 12.6%
Feed Efficiency ([2]; 5-cm capsule): 23.6%
Abdominal Adipose ([2]; 50-mg pellet): 6.74 ± 1.57
Average Daily Gain ([2]; 50-mg pellet): 132 ± 6 g
Final 10-Week Body Weight ([2]; 50-mg pellet): 5416 ± 136 g
Final 10-Week Shank-Toe Length ([2]; 50-mg pellet): 23.3 ± 0.22 cm
Right Breast Muscle ([2]; 50-mg pellet): 529 ± 22 g
Feed/Gain Ratio ([2]; 50-mg pellet): 1.99 ± 0.091
Abdominal Adipose (%) ([2]; 50-mg pellet): 59.6%
Average Daily Gain (%) ([2]; 50-mg pellet): 21.1%
Final 10-Week Body Weight (%) ([2]; 50-mg pellet): 10.3%
Right Breast Muscle (%) ([2]; 50-mg pellet): 23.3%
Feed Efficiency ([2]; 50-mg pellet): 21.6%

C[C@]12CCC(=O)C[C@@H]1CC[C@@H]1[C@@H]2CC[C@]2(C)[C@@H](O)CC[C@@H]12 [5-alpha-DHT, 5-alpha-dihydrotestosterone]
Abdominal Adipose ([1]; 5-mg pellet): 21.4
Average Daily Gain ([1]; 5-mg pellet): 106 ± 2 g
Final 9-Week Body Weight ([1]; 5-mg pellet): 4073 ± 72 g
Final 9-Week Shank-Toe Length ([1]; 5-mg pellet): 18.6 ± 0.21 cm
Right Breast Muscle ([1]; 5-mg pellet): 415 ± 7 g
Feed/Gain Ratio ([1]; 5-mg pellet): 2.03 ± 0.03
Abdominal Adipose (%) ([1]; 5-mg pellet): 28%
Abdominal Adipose ([1]; 50-mg pellet): 20.2
Average Daily Gain ([1]; 50-mg pellet): 121 ± 3 g
Final 9-Week Body Weight ([1]; 50-mg pellet): 4365 ± 84 g
Final 9-Week Shank-Toe Length ([1]; 50-mg pellet): 18.79 ± 0.25 cm
Right Breast Muscle ([1]; 50-mg pellet): 487 ± 13 g
Feed/Gain Ratio ([1]; 50-mg pellet): 1.82 ± 0.03
Abdominal Adipose (%) ([1]; 50-mg pellet): 32%
Feed/Gain Ratio (%) ([1]; 50-mg pellet): 13.7%
Average Daily Gain (%) ([1]; 50-mg pellet): 17.5%
Final 9-Week Body Weight (%) ([1]; 50-mg pellet): 8.9%
Right Breast Muscle (%) ([1]; 50-mg pellet): 24.9%
Abdominal Adipose ([2]; 5-cm Silastic capsule): 12.2 ± 1.44
Average Daily Gain ([2]; 5-cm Silastic capsule): 113 ± 3 g
Final 10-Week Body Weight ([2]; 5-cm Silastic capsule): 4985 ± 60 g
Final 10-Week Shank-Toe Length ([2]; 5-cm Silastic capsule): 24.4 ± 0.15 cm
Right Breast Muscle ([2]; 5-cm Silastic capsule): 465 ± 17 g
Feed/Gain Ratio ([2]; 5-cm Silastic capsule): 2.30 ± 0.120
Right Breast Muscle (%) ([2]; 5-cm capsule): 8.4%
Feed Efficiency ([2]; 5-cm capsule): 9.4%
Abdominal Adipose ([2]; 50-mg pellet): 9.53 ± 1.12
Average Daily Gain ([2]; 50-mg pellet): 120 ± 3 g
Final 10-Week Body Weight ([2]; 50-mg pellet): 5202 ± 44 g
Final 10-Week Shank-Toe Length ([2]; 50-mg pellet): 24.3 ± 0.28 cm
Right Breast Muscle ([2]; 50-mg pellet): 460 ± 10 g
Feed/Gain Ratio ([2]; 50-mg pellet): 2.33 ± 0.079
Average Daily Gain (%) ([2]; 50-mg pellet): 10.1%
Final 10-Week Body Weight (%) ([2]; 50-mg pellet): 6.0%
Right Breast Muscle (%) ([2]; 50-mg pellet): 7.2%
